Reference: patent US7435837B2, “Dihydrobenzofuranyl alkanamine derivatives and methods for using same” (Wyeth, priority 2003, dated 2008)
Where two headings read alike, the source gives them in different places.

Key:
[1] = target: T1, human 5-hydroxytryptamine-2C (h5-HT2C) receptor (Homo sapiens, UniProt P28335); assay: [125I]DOI binding to membranes of CHO cells expressing the human 5-HT2C receptor; details: [125I]DOI radioligand, CHO cell membranes, room temperature 60 min
T1 construct: expressed in transfected cells; host or cells: CHO (Chinese Hamster Ovary) cells; membranes
T1 sequence (P28335 33-458): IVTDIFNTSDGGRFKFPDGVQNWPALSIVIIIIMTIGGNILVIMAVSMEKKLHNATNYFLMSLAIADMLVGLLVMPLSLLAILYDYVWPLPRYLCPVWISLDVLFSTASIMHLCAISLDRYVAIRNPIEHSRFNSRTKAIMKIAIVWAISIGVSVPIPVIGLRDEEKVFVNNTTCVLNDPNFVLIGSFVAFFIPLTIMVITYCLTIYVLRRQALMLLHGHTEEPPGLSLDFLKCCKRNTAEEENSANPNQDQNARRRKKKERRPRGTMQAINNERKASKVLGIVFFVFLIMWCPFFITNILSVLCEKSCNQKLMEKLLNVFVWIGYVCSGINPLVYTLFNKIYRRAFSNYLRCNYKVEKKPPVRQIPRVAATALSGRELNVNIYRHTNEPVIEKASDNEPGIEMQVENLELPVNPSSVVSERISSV

[2] = target: T2, human 5-HT2C receptor (Homo sapiens, UniProt P28335); assay: 5-HT2C receptor-stimulated calcium mobilization (FLIPR) in CHO cells; format: cell-based; details: for Emax: CHO; for EC50: calcium mobilization, CHO cells stably expressing human 5-HT2C;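 for all read-outs here: Fluo-3-AM fluorescence read on FLIPR every 1 s, agonist added after 10 baseline reads, response taken as peak minus lowest raw fluorescence count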
T2 sequence (P28335 33-458): T1 sequence (P28335 33-458)

[3] = percentage of the response observed with a maximally effective concentration of 5-HT, read-out: 5-HT2C Function Emax (%)

Q: Which results are given for `COc1cccc(-c2cc(C(F)(F)F)cc3c2OC(CN)C3)c1OC` (racemic) [Example 331, (±)-{[7-(2,3-dimethoxyphenyl)-5-(trifluoromethyl)-2,3-dihydro-1-benzofuran-2-yl]methyl}amine]?
A: Ki ([1]; read-out: 5-HT2C Affinity Ki): 38 nM; Emax [2, 3]: 80%; EC50 ([2]; read-out: 5-HT2C Function EC50): 271 nM

Q: Which results are given for `NCC1Cc2cc(C(F)(F)F)cc(-c3ccc(F)cc3F)c2O1` (racemic) [Example 332, (±)-{[7-(2,4-difluorophenyl)-5-(trifluoromethyl)-2,3-dihydro-1-benzofuran-2-yl]methyl}amine]?
A: Ki ([1]; read-out: 5-HT2C Affinity Ki): 37 nM; Emax [2, 3]: 80%; EC50 ([2]; read-out: 5-HT2C Function EC50): 111 nM

Q: What does the source list for `COc1ccc(-c2cc(C(F)(F)F)cc3c2OC(CN)C3)c(OC)c1` (racemic) [Example 333, (±)-{[7-(2,4-dimethoxyphenyl)-5-(trifluoromethyl)-2,3-dihydro-1-benzofuran-2-yl]methyl}amine]?
A: Ki ([1]; read-out: 5-HT2C Affinity Ki): 13 nM; Emax [2, 3]: 90%; EC50 ([2]; read-out: 5-HT2C Function EC50): 70 nM

Q: For `NCC1Cc2cc(C(F)(F)F)cc(-c3cc(F)ccc3F)c2O1` (racemic) [Example 336, (±)-{[7-(2,5-difluorophenyl)-5-(trifluoromethyl)-2,3-dihydro-1-benzofuran-2-yl]methyl}amine], which Ki ([1]; read-out: 5-HT2C Affinity Ki) is on record?
A: 45 nM

Q: What about the Emax [2, 3] of the same compound?
A: 90%

Q: What about the EC50 ([2]; read-out: 5-HT2C Function EC50) of the same compound?
A: 123 nM

Q: Which Ki ([1]; read-out: 5-HT2C Affinity Ki) does the source give for `NCC1Cc2cc(C(F)(F)F)cc(-c3cc(Cl)ccc3Cl)c2O1` (racemic) [Example 337, (±)-{[7-(2,5-dichlorophenyl)-5-(trifluoromethyl)-2,3-dihydro-1-benzofuran-2-yl]methyl}amine] here?
A: 34 nM

Q: And the Emax [2, 3]?
A: 90%

Q: And the EC50 ([2]; read-out: 5-HT2C Function EC50)?
A: 48 nM

Q: Which Ki ([1]; read-out: 5-HT2C Affinity Ki) does the source give for `Cc1cccc(C)c1-c1cc(C(F)(F)F)cc2c1OC(CN)C2` (racemic) [Example 338, (±)-{[7-(2,6-dimethylphenyl)-5-(trifluoromethyl)-2,3-dihydro-1-benzofuran-2-yl]methyl}amine] here?
A: 14 nM

Q: And the Emax [2, 3]?
A: 90%

Q: What about the EC50 ([2]; read-out: 5-HT2C Function EC50) of the same compound?
A: 44 nM

Q: Which results are given for `NCC1Cc2cc(C(F)(F)F)cc(-c3ccoc3)c2O1` (racemic) [Example 341, (±)-{[7-(3-furyl)-5-(trifluoromethyl)-2,3-dihydro-1-benzofuran-2-yl]methyl}amine]?
A: Ki ([1]; read-out: 5-HT2C Affinity Ki): 36 nM; Emax [2, 3]: 90%; EC50 ([2]; read-out: 5-HT2C Function EC50): 231 nM

Q: What does the source list for `NCC1Cc2cc(C(F)(F)F)cc(-c3ccsc3)c2O1` (racemic) [Example 342, (±)-{[7-thien-3-yl-5-(trifluoromethyl)-2,3-dihydro-1-benzofuran-2-yl]methyl}amine]?
A: Ki ([1]; read-out: 5-HT2C Affinity Ki): 28 nM; Emax [2, 3]: 80%; EC50 ([2]; read-out: 5-HT2C Function EC50): 590 nM

Q: `NCC1Cc2cc(C(F)(F)F)cc(-c3cccnc3)c2O1` (racemic) [Example 343, (±)-{[7-pyridin-3-yl-5-(trifluoromethyl)-2,3-dihydro-1-benzofuran-2-yl]methyl}amine] was tested. Which Ki ([1]; read-out: 5-HT2C Affinity Ki) did it give?
A: 12 nM

Q: What about the Emax [2, 3] of the same compound?
A: 90%

Q: And the EC50 ([2]; read-out: 5-HT2C Function EC50)?
A: 49 nM

Q: What does the source list for `NCC1Cc2cc(-c3ccccc3)cc(-c3ccccc3)c2O1` (racemic) [Example 344, (±)-[(5,7-diphenyl-2,3-dihydro-1-benzofuran-2-yl)methyl]amine]?
A: Ki ([1]; read-out: 5-HT2C Affinity Ki): 275 nM; Emax [2, 3]: 60%; EC50 ([2]; read-out: 5-HT2C Function EC50): 2920 nM

Q: With `COc1cc2c(c(-c3ccccc3F)c1)OC(CN)C2` (racemic) [Example 356, (±)-{[7-(2-fluorophenyl)-5-methoxy-2,3-dihydro-1-benzofuran-2-yl]methyl}amine] as the compound, how does the Ki ([1]; read-out: 5-HT2C Affinity Ki) read?
A: 0.63 nM

Q: What about the Emax [2, 3] of the same compound?
A: 100%

Q: What about the EC50 ([2]; read-out: 5-HT2C Function EC50) of the same compound?
A: 63 nM

Q: `COc1cc2c(c(-c3ccccc3Cl)c1)OC(CN)C2` (racemic) [Example 357, (±)-{[7-(2-chlorophenyl)-5-methoxy-2,3-dihydro-1-benzofuran-2-yl]methyl}amine] was tested. Which Ki ([1]; 5-HT2C Affinity Ki (nM)) did it give?
A: 18 nM

Q: And the EC50 ([2]; 5-HT2C Function EC50 (nM))?
A: 2 nM

Q: And the Emax ([2]; read-out: 5-HT2C Function Emax (%), percentage of the response observed with a maximally effective concentration of 5-HT)?
A: 100%

Q: How did the Ki ([1]; read-out: 5-HT2C Affinity Ki) turn out when `COc1cc2c(c(-c3ccccc3OC)c1)OC(CN)C2` (racemic) [Example 359, (±)-{[7-(2-methoxyphenyl)-5-methoxy-2,3-dihydro-1-benzofuran-2-yl]methyl}amine] was run?
A: 10 nM

Q: What about the Emax [2, 3] of the same compound?
A: 90%

Q: What about the EC50 ([2]; read-out: 5-HT2C Function EC50) of the same compound?
A: 8 nM

Q: `COc1cc2c(c(-c3cccc(F)c3F)c1)OC(CN)C2` (racemic) [Example 361, (±)-{[7-(2,3-difluorophenyl)-5-methoxy-2,3-dihydro-1-benzofuran-2-yl]methyl}amine] was tested. Which Ki ([1]; read-out: 5-HT2C Affinity Ki) did it give?
A: 33 nM

Q: And the Emax [2, 3]?
A: 90%

Q: What about the EC50 ([2]; read-out: 5-HT2C Function EC50) of the same compound?
A: 73 nM

Q: For `COc1cc2c(c(-c3cccc(Cl)c3Cl)c1)OC(CN)C2` (racemic) [Example 362, (±)-{[7-(2,3-dichlorophenyl)-5-methoxy-2,3-dihydro-1-benzofuran-2-yl]methyl}amine], which Ki ([1]; read-out: 5-HT2C Affinity Ki) is on record?
A: 36 nM

Q: What about the Emax [2, 3] of the same compound?
A: 70%

Q: What about the EC50 ([2]; read-out: 5-HT2C Function EC50) of the same compound?
A: 343 nM

Q: What does the source list for `COc1cc2c(c(-c3cccc(C)c3C)c1)OC(CN)C2` (racemic) [Example 363, (±)-{[7-(2,3-dimethylphenyl)-5-methoxy-2,3-dihydro-1-benzofuran-2-yl]methyl}amine]?
A: Ki ([1]; read-out: 5-HT2C Affinity Ki): 26 nM; Emax [2, 3]: 70%; EC50 ([2]; read-out: 5-HT2C Function EC50): 225 nM

Q: What does the source list for `COc1cc2c(c(-c3ccc(F)cc3F)c1)OC(CN)C2` (racemic) [Example 364, (±)-{[7-(2,4-difluorophenyl)-5-methoxy-2,3-dihydro-1-benzofuran-2-yl]methyl}amine]?
A: Ki ([1]; read-out: 5-HT2C Affinity Ki): 0.9 nM; Emax [2, 3]: 85%; EC50 ([2]; read-out: 5-HT2C Function EC50): 62 nM

Q: What does the source list for `COc1cc2c(c(-c3ccc(Cl)cc3Cl)c1)OC(CN)C2` (racemic) [Example 365, (±)-{[7-(2,4-dichlorophenyl)-5-methoxy-2,3-dihydro-1-benzofuran-2-yl]methyl}amine]?
A: Ki ([1]; read-out: 5-HT2C Affinity Ki): 24 nM; Emax [2, 3]: 100%; EC50 ([2]; read-out: 5-HT2C Function EC50): 15 nM

Q: For `COc1cc2c(c(-c3cc(F)ccc3F)c1)OC(CN)C2` (racemic) [Example 366, (±)-{[7-(2,5-difluorophenyl)-5-methoxy-2,3-dihydro-1-benzofuran-2-yl]methyl}amine], which Ki ([1]; read-out: 5-HT2C Affinity Ki) is on record?
A: 13 nM

Q: What about the Emax [2, 3] of the same compound?
A: 80%

Q: And the EC50 ([2]; read-out: 5-HT2C Function EC50)?
A: 394 nM

Q: How did the Ki ([1]; read-out: 5-HT2C Affinity Ki) turn out when `COc1cc2c(c(-c3cc(Cl)ccc3Cl)c1)OC(CN)C2` (racemic) [Example 367, (±)-{[7-(2,5-dichlorophenyl)-5-methoxy-2,3-dihydro-1-benzofuran-2-yl]methyl}amine] was run?
A: 0.21 nM

Q: And the Emax [2, 3]?
A: 100%

Q: What about the EC50 ([2]; read-out: 5-HT2C Function EC50) of the same compound?
A: 3 nM

Q: For `COc1cc2c(c(-c3cc(C)ccc3C)c1)OC(CN)C2` (racemic) [Example 370, (±)-{[7-(2,5-dimethylphenyl)-5-methoxy-2,3-dihydro-1-benzofuran-2-yl]methyl}amine], which Ki ([1]; read-out: 5-HT2C Affinity Ki) is on record?
A: 30 nM

Q: And the Emax [2, 3]?
A: 80%

Q: And the EC50 ([2]; read-out: 5-HT2C Function EC50)?
A: 190 nM

Q: What does the source list for `COc1ccc(OC)c(-c2cc(OC)cc3c2OC(CN)C3)c1` (racemic) [Example 371, (±)-{[7-(2,5-dimethoxyphenyl)-5-methoxy-2,3-dihydro-1-benzofuran-2-yl]methyl}amine]?
A: Ki ([1]; read-out: 5-HT2C Affinity Ki): 14 nM; Emax [2, 3]: 80%; EC50 ([2]; read-out: 5-HT2C Function EC50): 64 nM

Q: With `COc1cc2c(c(-c3cc(Cl)ccc3OC)c1)OC(CN)C2` (racemic) [Example 372, (±)-{[7-(5-chloro-2-methoxyphenyl)-5-methoxy-2,3-dihydro-1-benzofuran-2-yl]methyl}amine] as the compound, how does the Ki ([1]; read-out: 5-HT2C Affinity Ki) read?
A: 23 nM

Q: What about the Emax [2, 3] of the same compound?
A: 80%

Q: What about the EC50 ([2]; read-out: 5-HT2C Function EC50) of the same compound?
A: 224 nM

Q: With `COc1cc2c(c(-c3ccc(F)c(Cl)c3)c1)OC(CN)C2` (racemic) [Example 373, (±)-{[7-(3-chloro-4-fluorophenyl)-5-methoxy-2,3-dihydro-1-benzofuran-2-yl]methyl}amine] as the compound, how does the Ki ([1]; read-out: 5-HT2C Affinity Ki) read?
A: 61 nM

Q: What about the Emax [2, 3] of the same compound?
A: 60%

Q: And the EC50 ([2]; read-out: 5-HT2C Function EC50)?
A: 859 nM

Q: What does the source list for `COc1cc2c(c(-c3c(C)cccc3C)c1)OC(CN)C2` (racemic) [Example 374, (±)-{[7-(2,6-dimethylphenyl)-5-methoxy-2,3-dihydro-1-benzofuran-2-yl]methyl}amine]?
A: Ki ([1]; read-out: 5-HT2C Affinity Ki): 0.6 nM; Emax [2, 3]: 100%; EC50 ([2]; read-out: 5-HT2C Function EC50): 19 nM
